Experimental data reported in ChEMBL document CHEMBL4342507, “Targeting YAP Degradation by a Novel 1,2,4-Oxadiazole Derivative via Restoration of the Function of the Hippo Pathway” (ACS Med Chem Lett, 2020).
Activity calls are given as the source filed them. The rule behind the calls is not given here.

Columns and labels:
[1] = molecular target: T1, Serine/threonine-protein kinase LATS1 (Homo sapiens) (UniProt O95835); experiment: Activation of LATS1 in human PC9 cells assessed as increase in YAP phosphorylation at Ser397 at 0.25 to 1.5 uM measured after 12 to 24 hrs by immunoblotting analysis; format: cell-based
T1 sequence (whole entry): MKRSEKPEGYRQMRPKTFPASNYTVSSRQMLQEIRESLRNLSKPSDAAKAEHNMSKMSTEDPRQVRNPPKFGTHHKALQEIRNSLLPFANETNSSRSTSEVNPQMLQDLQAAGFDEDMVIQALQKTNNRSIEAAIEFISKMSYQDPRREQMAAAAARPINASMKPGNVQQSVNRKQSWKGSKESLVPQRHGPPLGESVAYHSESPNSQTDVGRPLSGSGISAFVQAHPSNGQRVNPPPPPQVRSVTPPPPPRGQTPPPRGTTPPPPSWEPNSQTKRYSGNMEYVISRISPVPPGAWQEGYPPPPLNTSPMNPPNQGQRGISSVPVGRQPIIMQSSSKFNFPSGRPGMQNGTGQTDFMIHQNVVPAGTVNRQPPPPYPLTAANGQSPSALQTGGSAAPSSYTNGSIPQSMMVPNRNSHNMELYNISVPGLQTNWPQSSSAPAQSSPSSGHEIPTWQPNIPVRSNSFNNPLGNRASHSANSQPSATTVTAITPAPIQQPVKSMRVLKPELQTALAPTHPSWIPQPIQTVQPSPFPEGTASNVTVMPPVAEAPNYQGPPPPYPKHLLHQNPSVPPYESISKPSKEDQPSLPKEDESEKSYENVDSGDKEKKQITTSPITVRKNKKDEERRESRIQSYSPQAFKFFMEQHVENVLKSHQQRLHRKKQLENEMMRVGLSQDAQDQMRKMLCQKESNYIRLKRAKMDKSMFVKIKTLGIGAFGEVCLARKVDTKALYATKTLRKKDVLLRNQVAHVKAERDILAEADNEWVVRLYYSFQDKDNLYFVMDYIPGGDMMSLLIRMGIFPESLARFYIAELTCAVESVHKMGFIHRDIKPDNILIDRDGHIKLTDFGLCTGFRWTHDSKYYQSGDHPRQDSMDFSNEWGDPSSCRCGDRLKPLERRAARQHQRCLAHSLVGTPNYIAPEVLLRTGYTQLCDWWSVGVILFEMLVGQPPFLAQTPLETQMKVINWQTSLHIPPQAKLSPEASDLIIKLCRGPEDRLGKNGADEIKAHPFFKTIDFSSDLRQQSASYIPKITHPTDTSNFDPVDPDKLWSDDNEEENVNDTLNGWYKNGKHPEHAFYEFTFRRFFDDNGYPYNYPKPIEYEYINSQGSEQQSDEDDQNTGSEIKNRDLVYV

[2] = molecular target: T1, Serine/threonine-protein kinase LATS1 (Homo sapiens); experiment: Activation of LATS1 in human PC3 cells assessed as increase in phosphorylation at Ser909 residue measured after 24 hrs by Western blot analysis; format: cell-based
[3] = tested on: Mus musculus; experiment: Downregulation of YAP protein expression in tumor of athymic Nude-Foxn1nu BALB/c mouse xenografted with human MDA-MB-231 cells at 200 mg/kg, po administered once daily via gavage for 40 days by immunoblotting analysis; format: functional, organism-based
[4] = tested on: MCF7; experiment: Cytotoxicity against human MCF7 cells assessed as reduction in cell viability measured after 72 hrs by MTT assay; format: functional, cell-based; conditions: MCF7, 72 h
[5] = Acute toxicity in athymic Nude-Foxn1nu BALB/c mouse xenografted with human MDA-MB-231 cells assessed as effect on body weight at 200 mg/kg, po administered once daily via gavage for 40 days and measured twice a week during treatment period; format: organism-based; conditions: in vivo, 960 h
[6] = molecular target: T1, Serine/threonine-protein kinase LATS1 (Homo sapiens); experiment: Activation of LATS1 in human MDA-MB-231 cells assessed as increase in phosphorylation at Thr1079 residue measured after 24 hrs by Western blot analysis; format: cell-based
[7] = tested on: PC-3; experiment: Downregulation of TAZ protein expression in human PC3 cells at 0.25 to 1.5 uM measured after 24 to 48 hrs by immunoblotting analysis; format: functional, cell-based
[8] = species: Homo sapiens; experiment: Activation of MOB in human PC3 cells assessed as phosphorylation at Thr35 residue at 0.25 to 1.25 uM measured after 24 hrs by Western blot analysis; format: cell-based

For `CC(=O)Nc1ccc(NC(=O)Nc2cccc(-c3nc(-c4ccc(NC(=O)c5cccnc5)cc4Cl)no3)c2)cc1C(F)(F)F`, the Activity [1] was “Active”, the Activity [2] was “Dose-dependent effect” and the inhibition [3] was “Active”. For the same molecule, the IC50 [4] was greater than 1200 nM, the Activity [5] was “Non-Toxic” and the Activity [6] was “Dose-dependent effect”. For the same molecule, the inhibition [7] was “inactive” and the Activity [8] was “inactive”.
